Reference: article PMC12615753, “Glutathione as a taste modulator: molecular mechanisms of interaction with umami and sweet taste receptors” (Food Chemistry: Molecular Sciences, 2025)

Key:
[1] = target: T1, hTAS1R1 Q278K/rTAS1R3 (Homo sapiens, UniProt Q7RTX1, Q278K); experiment: Calcium assay, hTAS1R1 mutant co-expressed with rTAS1R3; assay type: cell-based, rat
T1 construct: UniProtKB number Q7RTX1–1); expressed in transfected cells; host or cells: HEK293T/17 (ATCC CRL-11268)
T1 sequence (Q7RTX1 21-841 Q278K): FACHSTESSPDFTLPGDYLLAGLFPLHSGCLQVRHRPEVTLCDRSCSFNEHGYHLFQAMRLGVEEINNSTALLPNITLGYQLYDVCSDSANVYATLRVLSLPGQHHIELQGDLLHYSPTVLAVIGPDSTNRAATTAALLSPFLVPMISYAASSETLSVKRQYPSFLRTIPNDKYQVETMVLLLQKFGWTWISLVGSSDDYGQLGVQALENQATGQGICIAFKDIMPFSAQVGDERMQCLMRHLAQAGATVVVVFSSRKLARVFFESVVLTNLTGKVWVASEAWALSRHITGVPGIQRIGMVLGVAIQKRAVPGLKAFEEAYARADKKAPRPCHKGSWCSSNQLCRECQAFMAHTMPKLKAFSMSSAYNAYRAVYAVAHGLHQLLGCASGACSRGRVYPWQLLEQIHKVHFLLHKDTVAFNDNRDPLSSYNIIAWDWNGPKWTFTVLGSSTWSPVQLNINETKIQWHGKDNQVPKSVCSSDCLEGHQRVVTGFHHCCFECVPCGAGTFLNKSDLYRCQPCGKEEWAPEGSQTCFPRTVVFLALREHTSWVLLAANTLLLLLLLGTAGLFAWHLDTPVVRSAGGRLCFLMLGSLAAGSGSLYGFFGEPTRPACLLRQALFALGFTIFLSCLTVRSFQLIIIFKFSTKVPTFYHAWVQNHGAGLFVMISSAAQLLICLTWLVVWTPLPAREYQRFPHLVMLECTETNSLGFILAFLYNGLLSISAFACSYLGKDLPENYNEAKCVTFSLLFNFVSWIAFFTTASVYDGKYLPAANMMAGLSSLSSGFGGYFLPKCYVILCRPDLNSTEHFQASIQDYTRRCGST
T1 sequence (Q923K1 21-858 partner): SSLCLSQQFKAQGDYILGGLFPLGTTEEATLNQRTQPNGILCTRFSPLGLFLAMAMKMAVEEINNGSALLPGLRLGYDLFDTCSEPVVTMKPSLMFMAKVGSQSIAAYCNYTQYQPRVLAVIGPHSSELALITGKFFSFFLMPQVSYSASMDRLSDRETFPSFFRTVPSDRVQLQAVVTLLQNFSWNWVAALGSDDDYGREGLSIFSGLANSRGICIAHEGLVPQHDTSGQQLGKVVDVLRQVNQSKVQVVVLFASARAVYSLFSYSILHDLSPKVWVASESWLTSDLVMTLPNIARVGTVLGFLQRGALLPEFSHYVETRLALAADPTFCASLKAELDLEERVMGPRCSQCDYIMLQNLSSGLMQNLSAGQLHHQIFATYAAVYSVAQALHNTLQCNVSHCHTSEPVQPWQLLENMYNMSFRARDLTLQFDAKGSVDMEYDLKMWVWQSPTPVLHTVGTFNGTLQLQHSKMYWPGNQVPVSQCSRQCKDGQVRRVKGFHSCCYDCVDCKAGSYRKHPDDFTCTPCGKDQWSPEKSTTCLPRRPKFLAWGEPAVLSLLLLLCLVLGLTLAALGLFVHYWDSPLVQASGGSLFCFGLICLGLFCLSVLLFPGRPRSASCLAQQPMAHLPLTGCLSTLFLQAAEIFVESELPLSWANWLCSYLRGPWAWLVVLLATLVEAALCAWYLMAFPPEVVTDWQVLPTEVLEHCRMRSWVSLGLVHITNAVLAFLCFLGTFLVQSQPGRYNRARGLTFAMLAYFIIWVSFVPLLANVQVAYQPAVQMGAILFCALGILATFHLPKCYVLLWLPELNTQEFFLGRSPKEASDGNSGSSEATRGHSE

[2] = system: TAS1R1/TAS1R3; settings: ref Broadhead et al., 2011; Servant & Frerot, 2022; cited from earlier work

## N[C@@H](CCC(=O)N[C@@H](CS)C(=O)NCC(=O)O)C(=O)O [GSH, γ-L-glutamyl-L-cysteinyl-glycine]
[1]
  EC50: 5.66 ± 0.31 mM
[1]; Q278K
  effect of the added compound (1 mM) on the response to L-Glu: synergy was observed
  response to the agonist alone, vs WT: significantly increased the initial amplitude
[1]; Q278K, GSH
  Max ∆F/F0: 1.10 ± 0.02
  R1 = mutant EC50/WT EC50: 2.2
[2]
  EC50: 11.3 mM
